Data taken from publication PMC9848257, “Design and synthesis of novel rigid dibenzo[b,f]azepines through ring closure technique as promising anticancer candidates against leukaemia and acting as selective topoisomerase II inhibitors and DNA intercalators” (Journal of Enzyme Inhibition and Medicinal Chemistry, 2023).

Columns and labels:
Assay type in all cases: cell-based
[1] = system: CCRF-CEM; test: NCI-60 one-dose screen, CCRF-CEM; conditions: Homo sapiens, leukaemia, single dose 10 μM, read-out: Growth inhibition %
Experimental: (§1) Anti-proliferative effects of the counterparts 4a–g and 5a–g were screened against 60 human cancer cell lines, following the Developmental Therapeutics Program protocol, National Cancer Institute[35].
(§2) The anti-tumour activity of the fourteen synthesised congeners was investigated at the NCI against a panel of 60 cancer cell lines (NCI-60 Cell One-Dose Screen). The tested dibenzo[b,f]azepine derivatives were screened at a single dose level (10 μM), Table 1.

[2] = system: SR; test: NCI-60 one-dose screen, SR; conditions: Homo sapiens, leukaemia, single dose 10 μM, read-out: Growth inhibition %
Experimental: as §1, §2

[3] = system: EKVX; test: NCI-60 one-dose screen, EKVX; conditions: Homo sapiens, non-small cell lung cancer, single dose 10 μM, read-out: Growth inhibition %
Experimental: as §1, §2

[4] = system: HOP-62; test: NCI-60 one-dose screen, HOP-62; conditions: Homo sapiens; HOP-62, non-small cell lung cancer; single dose 10 μM; read-out: Growth inhibition %
Experimental: as §1, §2

[5] = system: NCI-H226; test: NCI-60 one-dose screen, NCI-H226; conditions: Homo sapiens; NCI-H226, non-small cell lung cancer; single dose 10 μM; read-out: Growth inhibition %
Experimental: as §1, §2

[6] = system: NCI-H23; test: NCI-60 one-dose screen, NCI-H23; conditions: Homo sapiens; NCI-H23, non-small cell lung cancer; single dose 10 μM; read-out: Growth inhibition %
Experimental: as §1, §2

[7] = system: NCI-H322M; test: NCI-60 one-dose screen, NCI-H322M; conditions: Homo sapiens, non-small cell lung cancer, single dose 10 μM, read-out: Growth inhibition %
Experimental: as §1, §2

[8] = system: COLO 205; test: NCI-60 one-dose screen, COLO 205; conditions: Homo sapiens; COLO 205, colon cancer; single dose 10 μM; read-out: Growth inhibition %
Experimental: as §1, §2

[9] = system: HCC-2998; test: NCI-60 one-dose screen, HCC-2998; conditions: Homo sapiens; HCC-2998, colon cancer; single dose 10 μM; read-out: Growth inhibition %
Experimental: as §1, §2

[10] = system: HCT-116; test: NCI-60 one-dose screen, HCT-116; conditions: Homo sapiens; HCT-116, colon cancer; single dose 10 μM; read-out: Growth inhibition %
Experimental: as §1, §2

[11] = system: HT29; test: NCI-60 one-dose screen, HT29; conditions: Homo sapiens, HT-29; HT29, colon cancer; single dose 10 μM; read-out: Growth inhibition %
Experimental: as §1, §2

[12] = system: SW-620; test: NCI-60 one-dose screen, SW-620; conditions: Homo sapiens; SW-620, colon cancer; single dose 10 μM; read-out: Growth inhibition %
Experimental: as §1, §2

[13] = system: SF-268; test: NCI-60 one-dose screen, SF-268; conditions: Homo sapiens; SF-268, CNS cancer; single dose 10 μM; read-out: Growth inhibition %
Experimental: as §1, §2

[14] = system: SF-539; test: NCI-60 one-dose screen, SF-539; conditions: Homo sapiens; SF-539, CNS cancer; single dose 10 μM; read-out: Growth inhibition %
Experimental: as §1, §2

[15] = system: U251; test: NCI-60 one-dose screen, U251; conditions: Homo sapiens, U-251; U251, CNS cancer; single dose 10 μM; read-out: Growth inhibition %
Experimental: as §1, §2

[16] = system: MALME-3M; test: NCI-60 one-dose screen, MALME-3M; conditions: Homo sapiens, melanoma, single dose 10 μM, read-out: Growth inhibition %
Experimental: as §1, §2

[17] = system: M14; test: NCI-60 one-dose screen, M14; conditions: Homo sapiens; M14, melanoma; single dose 10 μM; read-out: Growth inhibition %
Experimental: as §1, §2

[18] = system: MDA-MB-435; test: NCI-60 one-dose screen, MDA-MB-435; conditions: Homo sapiens; MDA-MB-435, melanoma; single dose 10 μM; read-out: Growth inhibition %
Experimental: as §1, §2

[19] = system: SK-MEL-28; test: NCI-60 one-dose screen, SK-MEL-28; conditions: Homo sapiens; SK-MEL-28, melanoma; single dose 10 μM; read-out: Growth inhibition %
Experimental: as §1, §2

[20] = system: SK-MEL-5; test: NCI-60 one-dose screen, SK-MEL-5; conditions: Homo sapiens; SK-MEL-5, melanoma; single dose 10 μM; read-out: Growth inhibition %
Experimental: as §1, §2

[21] = system: UACC-257; test: NCI-60 one-dose screen, UACC-257; conditions: Homo sapiens; UACC-257, melanoma; single dose 10 μM; read-out: Growth inhibition %
Experimental: as §1, §2

[22] = system: UACC-62; test: NCI-60 one-dose screen, UACC-62; conditions: Homo sapiens; UACC-62, melanoma; single dose 10 μM; read-out: Growth inhibition %
Experimental: as §1, §2

[23] = system: OVCAR-3; test: NCI-60 one-dose screen, OVCAR-3; conditions: Homo sapiens; OVCAR-3, ovarian cancer; single dose 10 μM; read-out: Growth inhibition %
Experimental: as §1, §2

[24] = system: OVCAR-4; test: NCI-60 one-dose screen, OVCAR-4; conditions: Homo sapiens; OVCAR-4, ovarian cancer; single dose 10 μM; read-out: Growth inhibition %
Experimental: as §1, §2

[25] = system: NCI/ADR-RES; test: NCI-60 one-dose screen, NCI/ADR-RES; conditions: Homo sapiens, ovarian cancer, single dose 10 μM, read-out: Growth inhibition %
Experimental: as §1, §2

[26] = system: 786-0; test: NCI-60 one-dose screen, 786-0; conditions: Homo sapiens; 786-0, renal cancer; single dose 10 μM; read-out: Growth inhibition %
Experimental: as §1, §2

[27] = system: CAKI-1; test: NCI-60 one-dose screen, CAKI-1; conditions: Homo sapiens; CAKI-1, renal cancer; single dose 10 μM; read-out: Growth inhibition %
Experimental: as §1, §2

[28] = system: RXF 393; test: NCI-60 one-dose screen, RXF 393; conditions: Homo sapiens; RXF 393, renal cancer; single dose 10 μM; read-out: Growth inhibition %
Experimental: as §1, §2

[29] = system: UO-31; test: NCI-60 one-dose screen, UO-31; conditions: Homo sapiens; UO-31, renal cancer; single dose 10 μM; read-out: Growth inhibition %
Experimental: as §1, §2

[30] = system: PC-3; test: NCI-60 one-dose screen, PC-3; conditions: Homo sapiens; PC-3, prostate cancer; single dose 10 μM; read-out: Growth inhibition %
Experimental: as §1, §2

[31] = system: DU-145; test: NCI-60 one-dose screen, DU-145; conditions: Homo sapiens; DU-145, prostate cancer; single dose 10 μM; read-out: Growth inhibition %
Experimental: as §1, §2

[32] = system: MDA-MB-231-ATCC; test: NCI-60 one-dose screen, MDA-MB-231-ATCC; conditions: Homo sapiens, breast cancer, single dose 10 μM, read-out: Growth inhibition %
Experimental: as §1, §2

[33] = system: HS 578 T; test: NCI-60 one-dose screen, HS 578 T; conditions: Homo sapiens, breast cancer, single dose 10 μM, read-out: Growth inhibition %
Experimental: as §1, §2

[34] = system: T-47D; test: NCI-60 one-dose screen, T-47D; conditions: Homo sapiens, T47D, breast cancer, single dose 10 μM, read-out: Growth inhibition %
Experimental: as §1, §2

Structure (SMILES)	inhibition at 10 µM [1]	inhibition at 10 µM [2]	inhibition at 10 µM [3]	inhibition at 10 µM [4]	inhibition at 10 µM [5]	inhibition at 10 µM [6]	inhibition at 10 µM [7]	inhibition at 10 µM [8]	inhibition at 10 µM [9]	inhibition at 10 µM [10]	inhibition at 10 µM [11]	inhibition at 10 µM [12]	inhibition at 10 µM [13]	inhibition at 10 µM [14]	inhibition at 10 µM [15]	inhibition at 10 µM [16]	inhibition at 10 µM [17]	inhibition at 10 µM [18]	inhibition at 10 µM [19]	inhibition at 10 µM [20]	also measured
Clc1ccc(-c2nnc(N3c4ccccc4C=Cc4ccccc43)o2)cc1 [Compound 5c, 2-(4-Chlorophenyl)-5-(5H-dibenzo[b,f]azepin-5-yl)-1,3,4-oxadiazole]	30.4%	67.5%	20.8%	15.4%	27.5%	< 10%	10.5%	< 10%	< 10%	47.7%	< 10%	< 10%	24.7%	< 10%	42.6%	< 10%	< 10%	< 10%	< 10%	48%	inhibition at 10 µM [21]: < 10%; inhibition at 10 µM [22]: 31.3%; inhibition at 10 µM [23]: < 10%; inhibition at 10 µM [24]: 22.1%; inhibition at 10 µM [25]: 14.5%; inhibition at 10 µM [26]: < 10%; inhibition at 10 µM [27]: 28.5%; inhibition at 10 µM [28]: 17.9%; inhibition at 10 µM [29]: 33.8%; inhibition at 10 µM [30]: 44.1%; inhibition at 10 µM [31]: < 10%; inhibition at 10 µM [32]: 19.8%; inhibition at 10 µM [33]: < 10%; inhibition at 10 µM [34]: < 10%
Cc1ccc(-c2nnc(N3c4ccccc4C=Cc4ccccc43)o2)cc1 [Compound 5d, 2-(5 h-Dibenzo[b,f]azepin-5-yl)-5-(p-tolyl)-1,3,4-oxadiazole]	26.6%	60.6%	< 10%	< 10%	21.6%	< 10%	< 10%	19.4%	< 10%	45.8%	< 10%	< 10%	10.1%	< 10%	31.8%	< 10%	< 10%	< 10%	< 10%	34.6%	inhibition at 10 µM [21]: < 10%; inhibition at 10 µM [22]: 20.9%; inhibition at 10 µM [23]: < 10%; inhibition at 10 µM [24]: < 10%; inhibition at 10 µM [25]: < 10%; inhibition at 10 µM [26]: < 10%; inhibition at 10 µM [27]: 16.2%; inhibition at 10 µM [28]: < 10%; inhibition at 10 µM [29]: < 10%; inhibition at 10 µM [30]: 41.4%; inhibition at 10 µM [31]: < 10%; inhibition at 10 µM [32]: 9.21%; inhibition at 10 µM [33]: 13.2%; inhibition at 10 µM [34]: < 10%
C1=Cc2ccccc2N(c2nnc(-c3ccc4ccccc4c3)o2)c2ccccc21 [Compound 5f, 2-(5 h-Dibenzo[b,f]azepin-5-yl)-5-(naphthalen-2-yl)-1,3,4-oxadiazole]	28.2%	58.4%	28.9%	< 10%	21.4%	12.4%	9.52%	< 10%	< 10%	27.3%	< 10%	< 10%	21.9%	< 10%	32.3%	< 10%	< 10%	< 10%	< 10%	15.8%	inhibition at 10 µM [21]: < 10%; inhibition at 10 µM [22]: 12.8%; inhibition at 10 µM [23]: 2.22%; inhibition at 10 µM [24]: < 10%; inhibition at 10 µM [25]: 12.1%; inhibition at 10 µM [26]: < 10%; inhibition at 10 µM [27]: 33.1%; inhibition at 10 µM [28]: 10.4%; inhibition at 10 µM [29]: 24.7%; inhibition at 10 µM [30]: 40.9%; inhibition at 10 µM [31]: < 10%; inhibition at 10 µM [32]: < 10%; inhibition at 10 µM [33]: < 10%; inhibition at 10 µM [34]: 18.3%
C1=Cc2ccccc2N(c2nnc(Cc3ccccc3)o2)c2ccccc21 [Compound 5g, 2-Benzyl-5-(5H-dibenzo[b,f]azepin-5-yl)-1,3,4-oxadiazole]	15.6%	17.6%	2.24%	18.4%	< 10%	< 10%	< 10%	< 10%	< 10%	31.4%	< 10%	19.7%	10.7%	11.5%	10.1%	< 10%	< 10%	< 10%	< 10%	< 10%	inhibition at 10 µM [21]: 19.1%; inhibition at 10 µM [22]: 10.8%; inhibition at 10 µM [23]: 12.3%; inhibition at 10 µM [24]: < 10%; inhibition at 10 µM [25]: < 10%; inhibition at 10 µM [26]: 18.8%; inhibition at 10 µM [27]: < 10%; inhibition at 10 µM [28]: < 10%; inhibition at 10 µM [29]: 30.7%; inhibition at 10 µM [30]: < 10%; inhibition at 10 µM [31]: 16.3%; inhibition at 10 µM [32]: < 10%; inhibition at 10 µM [33]: 24.1%; inhibition at 10 µM [34]: 12%
